Test results reported in patent US20200325178A1, “PEPTIDE NUCLEIC ACID MOLECULES FOR TREATMENT OF GRAM POSITIVE BACTERIAL INFECTION” (priority 2017, published 2020).

How the values were obtained:
S. aureus MRSA strains = assay: Bioscreen-C dose response growth curve of MRSA over 24 hours; type: cell-based, Staphylococcus aureus; conditions: HCl salts, doses from 100 μg downwards, 10 mM sodium bicarbonate buffer pH-7.4, OD 420-580 nm
Procedure: Bioscreen-C instrument was used to detect the MIC and MBC of PNA-CPP derivatives against S. aureus MRSA strains. Different concentration of PNA-CPP derivatives were prepared in 10 mM of sodium bicarbonate buffer pH-7.4 and added to ˜5.0 Log 10 CFUs in a Honey comb Bioscreen-C plate.
Compound I-V were assayed against MRSA. FIG. 6-10 show a dose response growth curve of MRSA in presence of increasing concentrations of Compound I-HCl (FIG. 6), Compound II-HCl (FIG. 7), Compound III-HCl (FIG. 8), Compound IV-HCl (FIG. 9), and Compound V-HCl (FIG. 10), determined in a Bioscreen-C spectrophotometer.

S. aureus MSSA strains = assay: Bioscreen-C dose response growth curve of MSSA over 24 hours; type: cell-based, Staphylococcus aureus; conditions: HCl salts, doses from 100 μg downwards, 10 mM sodium bicarbonate buffer pH-7.4, OD 420-580 nm
Procedure: Bioscreen-C instrument was used to detect the MIC and MBC of PNA-CPP derivatives against S. aureus MSSA strains. Different concentrations of PNA-CPP derivatives were prepared in 10 mM of sodium bicarbonate buffer pH-7.4 and added to ˜5.0 Log 10 CFUs in a Honey comb Bioscreen-C plate.
Compound I-V were assayed against MSSA. FIG. 12-16 show a dose response growth curve of MSSA in presence of increasing concentrations of Compound I-HCl (FIG. 12), Compound II-HCl (FIG. 13), Compound III-HCl (FIG. 14), Compound IV-HCl (FIG. 15), and Compound V-HCl (FIG. 16), determined in a Bioscreen-C spectrophotometer.

Substance: Compound III: PNA-CPP conjugate: PNA SEQ ID NO: 51, Glycine-Glycine linker, CPP BXRXRRXRRXRRXR; FIG. 3 (CGTCATACGCGGTCC; all peptide nucleic acid (PNA); PNA conjugated to cell-penetrating peptide via glycine-glycine linker, end not given here, further chemistry not fully specified)
- lowest dose at which no MRSA growth was observed (growth curve) (S. aureus MRSA strains): 12.5 µg
- lowest dose at which no MSSA growth was observed (growth curve) (S. aureus MSSA strains): 25 µg
